pEC50, pIC50: −log10 of the molar value.
Key:
Cbl-b = target: T1, Cbl-b (Homo sapiens, UniProt Q13191); assay: Cbl-b probe displacement HTRF binding assay; details: 0.4 nM biotinylated Cbl-b, 150 nM BODIPY probe
T1 construct: biotin (biotinylated)
How it was run: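 Biotinylated Cbl-b was preincubated with compound for 60 min at room temperature in HEPES/NaCl/Triton/TCEP/BSA buffer. BODIPY probe was added for 15 min, followed by streptavidin-terbium, and the HTRF signal was read. Displacement was normalised to DMSO and no-protein controls, and affinity was obtained from a four-parameter dose-response fit.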

Jurkat cells = assay: IL-2 secretion assay in CD3/CD28-activated Jurkat cells (AlphaLISA); type: cell-based; details: Homo sapiens, CD3/CD28 T Cell Activator, 24 h, IL-2 AlphaLISA
How it was run: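 Jurkat cells (50,000/well) were preincubated 1 h at 37° C with compound in a 16-point 1:2 series spanning 10 μM to 300 pM final. Cells were then activated with CD3/CD28 T cell activator, and secreted IL-2 was read by AlphaLISA. EC50 came from 4-parameter logistic fits.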

T1 sequence (Q13191 whole entry, species assumed): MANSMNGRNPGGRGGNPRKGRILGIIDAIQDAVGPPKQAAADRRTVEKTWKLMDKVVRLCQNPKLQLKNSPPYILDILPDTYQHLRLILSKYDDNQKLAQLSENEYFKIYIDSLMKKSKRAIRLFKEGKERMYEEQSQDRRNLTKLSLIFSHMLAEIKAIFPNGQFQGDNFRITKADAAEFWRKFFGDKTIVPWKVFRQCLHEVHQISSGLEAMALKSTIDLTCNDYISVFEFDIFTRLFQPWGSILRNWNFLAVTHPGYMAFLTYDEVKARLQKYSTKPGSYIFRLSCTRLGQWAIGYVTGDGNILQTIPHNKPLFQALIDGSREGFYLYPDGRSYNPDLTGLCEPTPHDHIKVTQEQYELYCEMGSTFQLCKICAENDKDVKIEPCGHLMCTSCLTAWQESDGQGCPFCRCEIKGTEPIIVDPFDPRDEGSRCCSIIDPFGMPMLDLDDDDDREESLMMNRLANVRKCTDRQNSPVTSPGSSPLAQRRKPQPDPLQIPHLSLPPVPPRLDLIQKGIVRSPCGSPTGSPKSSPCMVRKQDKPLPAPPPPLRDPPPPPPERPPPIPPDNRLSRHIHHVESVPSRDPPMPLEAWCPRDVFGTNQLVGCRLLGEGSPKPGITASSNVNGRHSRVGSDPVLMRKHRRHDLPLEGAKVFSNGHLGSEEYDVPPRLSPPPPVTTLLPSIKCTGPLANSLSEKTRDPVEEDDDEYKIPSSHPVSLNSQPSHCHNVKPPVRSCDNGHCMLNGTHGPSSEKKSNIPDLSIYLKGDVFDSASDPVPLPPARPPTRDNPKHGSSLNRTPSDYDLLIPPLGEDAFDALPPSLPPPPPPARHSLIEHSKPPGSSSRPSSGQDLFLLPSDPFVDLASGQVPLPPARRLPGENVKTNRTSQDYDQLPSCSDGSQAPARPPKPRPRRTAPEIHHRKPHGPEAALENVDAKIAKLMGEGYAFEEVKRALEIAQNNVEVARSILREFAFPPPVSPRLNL

pIC50 (Cbl-b) | pEC50 (Jurkat cells) | SMILES
> 7.00 | 6.00 to 7.00 | COC1CC(c2cccc(-n3cc(C4CC4)c4cc(CN5CCO[C@H](C)C5)[nH]c4c3=O)c2)(c2nncn2C)C1 (stereo partly drawn) [Example 103, 4-cyclopropyl-6-[3-[3-methoxy-1-(4-methyl-1,2,4-triazol-3-yl)cyclobutyl]phenyl]-2-[[(2R)-2-methylmorpholin-4-yl]methyl]-1H-pyrrolo[2,3-c]pyridin-7-one]
> 7.00 | 6.00 to 7.00 | Cn1cnnc1C1(c2cccc(-n3cc(C4CC4)c4cc(CN5CCC6(CC6)C5)[nH]c4c3=O)c2)CC2(CC2)C1 [Example 70, 2-({5-azaspiro[2.4]heptan-5-yl}methyl)-4-cyclopropyl-6-{3-[5-(4-methyl-4H-1,2,4-triazol-3-yl)spiro[2.3]hexan-5-yl]phenyl}-1H,6H,7H-pyrrolo[2,3-c]pyridin-7-one]
> 7.00 | > 7.00 | C[C@H]1CCCN(Cc2nc3c(C4CC4)cn(-c4cccc([C@]5(c6nncn6C)C[C@H](C)C5)c4)c(=O)c3[nH]2)C1 [Example 109, 7-cyclopropyl-5-[3-[3-methyl-1-(4-methyl-1,2,4-triazol-3-yl)cyclobutyl]phenyl]-2-[[(3S)-3-methylpiperidin-1-yl]methyl]-3H-imidazo[4,5-c]pyridin-4-one]
> 7.00 | 6.00 to 7.00 | Cn1cnnc1[C@]1(c2cccc(-n3cc(C(F)(F)F)c4cn[nH]c4c3=O)c2)C[C@H](C)C1 [Example 140, 6-{3-[(1R,3S)-3-Methyl-1-(4-methyl-4H-1,2,4-triazol-3-yl)cyclobutyl]phenyl}-4-(trifluoromethyl)-1H,6H,7H-pyrazolo[3,4-c]pyridin-7-one]
> 7.00 | 6.00 to 7.00 | C[C@H]1CCCN(Cc2cc3c(C4CC4)cn(-c4cccc(C(O)(c5nncn5C)C5CCC5)c4)c(=O)c3[nH]2)C1 (stereo partly drawn) [Example 155, 6-[3-[cyclobutyl-hydroxy-(4-methyl-1,2,4-triazol-3-yl)methyl]phenyl]-4-cyclopropyl-2-[[(3S)-3-methylpiperidin-1-yl]methyl]-1H-pyrrolo[2,3-c]pyridin-7-one]
> 7.00 | 5.30 to 6.00 | Cn1cnnc1[C@]1(c2cccc(-n3cc(C#N)c4cc[nH]c4c3=O)c2)C[C@H](C)C1 [Example 38, 7-oxo-6-{3-[(1r,3s)-3-methyl-1-(4-methyl-4H-1,2,4-triazol-3-yl)cyclobutyl]phenyl}-1H,6H,7H-pyrrolo[2,3-c]pyridine-4-carbonitrile]
6.00 to 7.00 | 5.30 to 6.00 | CC1CC(c2cccc(-n3cc(C4CC4)c4cc(CN(C)S(C)(=O)=O)[nH]c4c3=O)c2)(c2nncn2C)C1 (stereo not drawn) [Example 69, N-[(4-cyclopropyl-7-oxo-6-{3-[(1r,3s)-3-methyl-1-(4-methyl-4H-1,2,4-triazol-3-yl)cyclobutyl]phenyl}-1H,6H,7H-pyrrolo[2,3-c]pyridin-2-yl)methyl]-N-methylmethanesulfonamide]
> 7.00 | > 7.00 | CC1CC(c2cccc(-n3cc(C4CC4)c4cc(CN(C)C)[nH]c4c3=O)c2)(c2nncn2C)C1 (stereo not drawn) [Example 55, 4-cyclopropyl-2-[(dimethylamino)methyl]-6-{3-[3-methyl-1-(4-methyl-4H-1,2,4-triazol-3-yl)cyclobutyl]phenyl}-1H,6H,7H-pyrrolo[2,3-c]pyridin-7-one]
> 7.00 | 6.00 to 7.00 | Cn1cnnc1[C@]1(c2cccc(-n3cc(C4CC4)c4c(C#N)c[nH]c4c3=O)c2)C[C@H](C)C1 (single isomer, unassigned) [Example 14, 4-Cyclopropyl-7-oxo-6-{3-[(1r,3s)-3-methyl-1-(4-methyl-4H-1,2,4-triazol-3-yl)cyclobutyl]phenyl}-1H,6H,7H-pyrrolo[2,3-c]pyridine-3-carbonitrile]
6.00 to 7.00 | 6.00 to 7.00 | C[C@H]1CCCN(Cc2cc3c(C4CC4)cn(-c4cccc(C5(Cn6ccnn6)CC(F)(F)C5)c4)c(=O)c3[nH]2)C1 [Example 123, 4-cyclopropyl-6-[3-[3,3-difluoro-1-(triazol-1-ylmethyl)cyclobutyl]phenyl]-2-[[(3S)-3-methylpiperidin-1-yl]methyl]-1H-pyrrolo[2,3-c]pyridin-7-one]
> 7.00 | > 7.00 | C[C@H]1CCCN(Cc2cc3c(C4CC4)cn(-c4cccc(C(C)(F)c5nncn5C)c4)c(=O)c3[nH]2)C1 (stereo partly drawn) [Example 163, 4-cyclopropyl-6-[3-[1-fluoro-1-(4-methyl-1,2,4-triazol-3-yl)ethyl]phenyl]-2-[[(3S)-3-methylpiperidin-1-yl]methyl]-1H-pyrrolo[2,3-c]pyridin-7-one]
6.00 to 7.00 | < 5.30 | CC1CC(c2cccc(-n3cc(C4CC4)c4cc(CN5C[C@@H]6C[C@H]5CN6C)[nH]c4c3=O)c2)(c2nncn2C)C1 (stereo partly drawn) [Example 62]
5.30 to 6.00 | < 5.30 | CC1CC(c2cccc(-n3cc(C(=O)O)c4cn[nH]c4c3=O)c2)(c2nncn2C)C1 (mixture of isomers) [Example 141, 7-Oxo-6-{3-[(1R,3S)-3-methyl-1-(4-methyl-4H-1,2,4-triazol-3-yl)cyclobutyl]phenyl}-1H,6H,7H-pyrazolo[3,4-c]pyridine-4-carboxylic acid]
5.30 to 6.00 | < 5.30 | Cn1cnnc1[C@]1(c2cccc(-n3cc(CO)c4cn[nH]c4c3=O)c2)C[C@H](C)C1 [Example 142, 4-(Hydroxymethyl)-6-{3-[(1R,3S)-3-methyl-1-(4-methyl-4H-1,2,4-triazol-3-yl)cyclobutyl]phenyl}-1H,6H,7H-pyrazolo[3,4-c]pyridin-7-one]

SMILES | pIC50 (Cbl-b) | pEC50 (Jurkat cells)
CC1CC(c2cccc(-n3cc(C4CC4)c4cc(CN5[C@@H]6COC[C@H]5C6)[nH]c4c3=O)c2)(c2nncn2C)C1 (stereo partly drawn) [Example 60, 4-cyclopropyl-6-{3-[3-methyl-1-(4-methyl-4H-1,2,4-triazol-3-yl)cyclobutyl]phenyl}-2-{[(1R,5S)-3-oxa-6-azabicyclo[3.1.1]heptan-6-yl]methyl}-1H,6H,7H-pyrrolo[2,3-c]pyridin-7-one] | > 7.00 | 5.30 to 6.00
